Here are results for 18 compounds from patent US6528494B2 (priority 1996, dated 2003).

Counter-ions that a name gives are not always drawn.

Common to all, as to type: cell-based
The target of one experiment is T1, adenosine 3 receptor (Homo sapiens, UniProt P0DMS8).
T1 sequence (P0DMS8 1-318): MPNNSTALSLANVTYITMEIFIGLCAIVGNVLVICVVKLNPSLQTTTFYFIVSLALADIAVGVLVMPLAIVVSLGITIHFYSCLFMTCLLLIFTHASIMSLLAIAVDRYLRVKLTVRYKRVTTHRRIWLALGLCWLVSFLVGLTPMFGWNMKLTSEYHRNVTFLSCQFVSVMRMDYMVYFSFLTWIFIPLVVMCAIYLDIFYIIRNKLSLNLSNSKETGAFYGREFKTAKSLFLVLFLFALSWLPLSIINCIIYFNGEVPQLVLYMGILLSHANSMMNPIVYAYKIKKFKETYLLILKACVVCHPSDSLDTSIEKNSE
As to the kind of experiment: Agonist activity against adenosine 3 receptor (CHO cells, forskolin-enhanced cAMP/SPAP reporter). To be noted: CHO cells transfected with human receptor; forskolin-enhanced cAMP via SPAP; mean of all the versions tested. On the procedure:
(§1) (1) Agonist activity against adenosine 2a, adenosine 1 and adenosine 3 receptor subtypes.
(§2) The effect of test compounds was determined by their effects on basal levels of cAMP (A2a) or on forskolin-enhanced cAMP (A1 and A3) as reflected by changes in levels of SPAP.

A further experiment concerns the target T2, adenosine 1 receptor (Homo sapiens, UniProt P30542).
T2 sequence (P30542 1-326): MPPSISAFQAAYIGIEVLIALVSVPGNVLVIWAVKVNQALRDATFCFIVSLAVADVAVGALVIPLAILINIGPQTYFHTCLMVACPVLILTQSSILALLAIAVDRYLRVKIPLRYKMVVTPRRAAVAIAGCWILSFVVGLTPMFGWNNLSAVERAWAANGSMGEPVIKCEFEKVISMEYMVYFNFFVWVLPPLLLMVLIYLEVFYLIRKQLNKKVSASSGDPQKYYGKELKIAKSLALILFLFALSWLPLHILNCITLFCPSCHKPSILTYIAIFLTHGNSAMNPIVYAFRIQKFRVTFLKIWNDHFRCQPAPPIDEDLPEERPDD
Briefly: Agonist activity against adenosine 1 receptor (CHO cells, forskolin-enhanced cAMP/SPAP reporter). The conditions noted are these: CHO cells transfected with human receptor; forskolin-enhanced cAMP via SPAP; mean of all the versions tested. On the procedure:
as §1, §2

The target of another experiment is adenosine 2a receptor (Homo sapiens, UniProt P29274). Briefly: Agonist activity against adenosine 2a receptor (CHO cells, cAMP/SPAP reporter). To be noted: CHO cells transfected with human receptor; basal cAMP via SPAP; mean of all the versions tested. On the procedure:
as §1, §2

adenosine 2a receptor, sequence (P29274 whole entry): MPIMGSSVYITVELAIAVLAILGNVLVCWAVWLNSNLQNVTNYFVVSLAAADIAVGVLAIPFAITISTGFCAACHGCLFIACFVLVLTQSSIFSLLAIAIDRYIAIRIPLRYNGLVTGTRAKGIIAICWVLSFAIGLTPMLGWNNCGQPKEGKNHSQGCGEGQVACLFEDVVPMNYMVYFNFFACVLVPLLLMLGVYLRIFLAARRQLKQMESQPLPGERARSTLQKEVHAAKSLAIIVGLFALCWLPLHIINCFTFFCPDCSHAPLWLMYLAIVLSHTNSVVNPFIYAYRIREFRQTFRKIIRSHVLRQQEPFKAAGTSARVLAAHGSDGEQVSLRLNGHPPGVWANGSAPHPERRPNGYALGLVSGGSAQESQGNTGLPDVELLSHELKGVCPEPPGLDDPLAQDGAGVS

For `CCn1nnc(C2OC(n3cnc4c(N)nc(NC5CCCC5O)nc43)C(O)C2O)n1` [Example 10, (2R,3R,4S,5R)-2-[6-Amino-2-(2R-hydroxy-cyclopent-1R-ylamino)-purin-9-yl]-5-(2-ethyl-2H-tetrazol-5-yl)-tetrahydro-furan-3,4-diol Hydrochloride], on adenosine 3 receptor, the “A3 EC50 as a ratio of that of NECA” value was 3.66. At adenosine 1 receptor, the “A1 EC50 as a ratio of that of NECA” value is on record as 22.1. The “A2a EC50 as a ratio of that of NECA” value on adenosine 2a receptor is listed as 0.11.

For the compound `Cn1nnc(C2OC(n3cnc4c(NCC(c5ccccc5)c5ccccc5)nc(NCCN5CCOCC5)nc43)C(O)C2O)n1.O=CO.O=CO` (stereo not drawn) [Example 98], on adenosine 3 receptor, the “A3 EC50 as a ratio of that of NECA” value is given as above 160. At adenosine 1 receptor, the “A1 EC50 as a ratio of that of NECA” value came to 126.50. The “A2a EC50 as a ratio of that of NECA” value at adenosine 2a receptor was determined as 2.28.

On to `CCC(CC)Nc1nc(NC2CCCC2O)nc2c1ncn2C1OC(c2nnn(C)n2)C(O)C1O.O=CO.O=CO` [Example 88, (2R,3R,4S,5R)-2-[6-(1-Ethyl-propylamino)-2-(2R-hydroxy-(R)-cyclopentylamino)-purin-9-yl]-5-(2-methyl-2H-tetrazol-5-yl)-tetrahydro-furan-3,4-diol Diformate], for which the “A3 EC50 as a ratio of that of NECA” value at adenosine 3 receptor is recorded as above 89. For the same compound, the “A1 EC50 as a ratio of that of NECA” value at adenosine 1 receptor is above 11750.00. Besides, the “A2a EC50 as a ratio of that of NECA” value on adenosine 2a receptor was determined as 4.53.

For the compound `CCn1nnc(C2OC(n3cnc4c(NCc5ccccc5)nc(NC(CO)Cc5ccccc5)nc43)C(O)C2O)n1` [Example 61, (2R,3R,4S,5R)-2-[6-Benzylamino-2-(1S-hydroxymethyl-2-phenyl-ethylamino)-purin-9-yl]-5-(2-ethyl-2H-tetrazol-5-yl)-tetrahydro-furan-3,4-diol Formate], on adenosine 3 receptor, the “A3 EC50 as a ratio of that of NECA” value was above 150. Besides, the “A1 EC50 as a ratio of that of NECA” value at adenosine 1 receptor is given as 323.00. Moreover, the “A2a EC50 as a ratio of that of NECA” value on adenosine 2a receptor came out at 9.20.

Regarding `CCn1nnc(C2OC(n3cnc4c(NCC(c5ccccc5)c5ccccc5)nc(NCCNC(=N)N)nc43)C(O)C2O)n1` (stereo not drawn) [Example 82, N-(2-{6-(2,2-Diphenyl-ethylamino)-9-[5R-(2-ethyl-2H-tetrazol-5-yl)-3R,4S-Dihydroxy-tetrahydro-furan-2R-yl]-9H-purin-2-ylamino}-ethyl)-guanidine bis(Trifluoroacetate)], at adenosine 3 receptor, the “A3 EC50 as a ratio of that of NECA” value is recorded as above 189. Moreover, the “A1 EC50 as a ratio of that of NECA” value on adenosine 1 receptor is 520.50. Further, on adenosine 2a receptor, the “A2a EC50 as a ratio of that of NECA” value worked out at 5.56.

`CCn1nnc([C@H]2O[C@@H](n3cnc4c(NCC(c5ccccc5)c5ccccc5)nc(NCCN5CCCCC5)nc43)[C@H](O)[C@@H]2O)n1.O=C(O)C(F)(F)F.O=C(O)C(F)(F)F` [Example 46]: the “A3 EC50 as a ratio of that of NECA” value on adenosine 3 receptor is recorded as above 216. Also, the “A1 EC50 as a ratio of that of NECA” value at adenosine 1 receptor worked out at 64.00. Further, the “A2a EC50 as a ratio of that of NECA” value at adenosine 2a receptor was 1.37.

With `CCn1nnc([C@H]2O[C@@H](n3cnc4c(N)nc(NCCc5ccc(OC)c(OC)c5)nc43)[C@H](O)[C@@H]2O)n1.O=C(O)C(F)(F)F` [Example 20, (2R,3R,4S,5R)-2-{6-Amino-2-[2-(3,4-dimethoxy-phenyl)-ethylamino]-purin-9-yl}-5-(2-ethyl-2H-tetrazol-5-yl)-tetrahydro-furan-3,4-diol Trifluoroacetate], the “A3 EC50 as a ratio of that of NECA” value at adenosine 3 receptor is recorded as above 183. The “A1 EC50 as a ratio of that of NECA” value on adenosine 1 receptor came to 253. For the same compound, at adenosine 2a receptor, the “A2a EC50 as a ratio of that of NECA” value is listed as 0.14.

As for `CCC(CC)Nc1nc(NCCN2CCOCC2)nc2c1ncn2C1OC(c2nnn(C)n2)C(O)C1O.O=CO.O=CO` [Example 91, (2R,3R,4S,5R)-2-[6-(1-Ethyl-propylamino)-2-(2-morpholin-4-yl-ethylamino)-purin-9-yl]-5-(2-methyl-2H-tetrazol-5-yl)-tetrahydro-furan-3,4-diol Diformate], the “A3 EC50 as a ratio of that of NECA” value on adenosine 3 receptor is given as above 270. For the same compound, the “A1 EC50 as a ratio of that of NECA” value at adenosine 1 receptor is recorded as above 7461.00. Besides, the “A2a EC50 as a ratio of that of NECA” value on adenosine 2a receptor came out at 1.75.

For `CCn1nnc([C@H]2O[C@@H](n3cnc4c(NCC(c5ccccc5)c5ccccc5)nc(NCCc5cccc(N)n5)nc43)[C@H](O)[C@@H]2O)n1.O=C(O)C(F)(F)F.O=C(O)C(F)(F)F.O=C(O)C(F)(F)F` [Example 22, (2R,3R,4S,5R)-2-[2-[2-(6-Amino-pyridin-2-yl)-ethylamino]-6-(2,2-diphenyl-ethylamino)-purin-9-yl]-5-(2-ethyl-2H-tetrazol-5-yl)-tetrahydro-furan-3,4-diol tris(Trifluoroacetate)], on adenosine 3 receptor, the “A3 EC50 as a ratio of that of NECA” value is above 188. The “A1 EC50 as a ratio of that of NECA” value on adenosine 1 receptor was 86.4. Besides, on adenosine 2a receptor, the “A2a EC50 as a ratio of that of NECA” value came out at 0.67.

Take `CCn1nnc([C@H]2O[C@@H](n3cnc4c(NCC(c5ccccc5)c5ccccc5)nc(NCCN)nc43)[C@H](O)[C@@H]2O)n1` [Example 83, (2R,3R,4S,5R)-2-[2-(2-Amino-ethylamino)-6-(2,2-diphenyl-ethylamino)-purin-9-yl]-5-(2-ethyl-2H-tetrazol-5-yl)-tetrahydro-furan-3,4-diol]: the “A3 EC50 as a ratio of that of NECA” value on adenosine 3 receptor is reported as above 362. In addition, the “A1 EC50 as a ratio of that of NECA” value at adenosine 1 receptor stood at 130.10. Moreover, the “A2a EC50 as a ratio of that of NECA” value on adenosine 2a receptor was 4.82.

Consider `Cn1nnc(C2OC(n3cnc4c(NCC(c5ccccc5)c5ccccc5)nc(NCCc5ccccn5)nc43)C(O)C2O)n1.O=CO.O=CO` (stereo not drawn) [Example 97], for which, on adenosine 3 receptor, the “A3 EC50 as a ratio of that of NECA” value was above 240. For the same compound, the “A1 EC50 as a ratio of that of NECA” value at adenosine 1 receptor stood at 1413.00. At adenosine 2a receptor, the “A2a EC50 as a ratio of that of NECA” value turned out to be 2.34.

As to `Cn1nnc(C2OC(n3cnc4c(NC5CCCC5)nc(NCCN5CCCCC5)nc43)C(O)C2O)n1.O=CO.O=CO` [Example 25, (2R,3R,4S,5R)-2-[6-Cyclopentylamino-2-(2-piperidin-1-yl-ethylamino)-purin-9-yl]-5-(2-methyl-2H-tetrazol-5-yl)-tetrahydro-furan-3,4-diol Diformate], on adenosine 3 receptor, the “A3 EC50 as a ratio of that of NECA” value is recorded as above 388. Further, the “A1 EC50 as a ratio of that of NECA” value at adenosine 1 receptor was found to be 211.8. Further, on adenosine 2a receptor, the “A2a EC50 as a ratio of that of NECA” value stood at 0.56.

Turning to `Cn1nnc([C@H]2O[C@@H](n3cnc4c(N)nc(NC5CC6CCC5C6)nc43)[C@H](O)[C@@H]2O)n1.O=CO` (stereo partly drawn) [Example 39, (2R,3R,4S,5R)-2-[6-Amino-2-(bicyclo[2.2.1]hept-2-ylamino)-purin-9-yl]-5-(2-methyl-2H-tetrazol-5-yl)-tetrahydro-furan-3,4-diol Formate], on adenosine 3 receptor, the “A3 EC50 as a ratio of that of NECA” value was above 315. For the same compound, at adenosine 1 receptor, the “A1 EC50 as a ratio of that of NECA” value is reported as 1429. Further, on adenosine 2a receptor, the “A2a EC50 as a ratio of that of NECA” value came to 0.31.

`Cn1nnc(C2OC(n3cnc4c(NC5CCCC5)nc(NC(CO)Cc5ccccc5)nc43)C(O)C2O)n1` [Example 36, (2R,3R,4S,5R)-2-[6-Cyclopentylamino-2-(1S-hydroxymethyl-2-phenyl-ethylamino)-purin-9-yl]-5-(2-methyl-2H-tetrazol-5-yl)-tetrahydro-furan-3,4-diol Formate]: the “A3 EC50 as a ratio of that of NECA” value on adenosine 3 receptor is on record as above 315. Besides, on adenosine 1 receptor, the “A1 EC50 as a ratio of that of NECA” value came out at 1.9. The “A2a EC50 as a ratio of that of NECA” value on adenosine 2a receptor was 0.99.

Take `CCn1nnc([C@H]2O[C@@H](n3cnc4c(NCC(c5ccccc5)c5ccccc5)nc(NC5CCS(=O)(=O)C5)nc43)[C@H](O)[C@@H]2O)n1.O=C(O)C(F)(F)F.O=C(O)C(F)(F)F` (stereo partly drawn) [Example 45]: the “A3 EC50 as a ratio of that of NECA” value at adenosine 3 receptor was above 420. The “A1 EC50 as a ratio of that of NECA” value on adenosine 1 receptor is recorded as above 1578.00. At adenosine 2a receptor, the “A2a EC50 as a ratio of that of NECA” value is on record as 2.26.

As for `CCn1nnc(C2OC(n3cnc4c(NC(CO)Cc5ccccc5)nc(NCCN5CCCCC5)nc43)C(O)C2O)n1` (stereo not drawn) [Example 103], the “A3 EC50 as a ratio of that of NECA” value on adenosine 3 receptor was above 184. Besides, on adenosine 1 receptor, the “A1 EC50 as a ratio of that of NECA” value was 48.50. Moreover, the “A2a EC50 as a ratio of that of NECA” value at adenosine 2a receptor stood at 3.91.

As for `CCn1nnc(C2OC(n3cnc4c(NCCC(C)(C)C)nc(NC(CO)Cc5ccccc5)nc43)C(O)C2O)n1` [Example 52, (2R,3R,4S,5R)-2-[6-(3,3-Dimethyl-butylamino)-2-(1S-hydroxymethyl-2-phenyl-ethylamino)-purin-9-yl]-5-(2-ethyl-2H-tetrazol-5-yl)-tetrahydro-furan-3,4-diol Acetate], at adenosine 3 receptor, the “A3 EC50 as a ratio of that of NECA” value is reported as above 736. In addition, the “A1 EC50 as a ratio of that of NECA” value at adenosine 1 receptor was 481.30. At adenosine 2a receptor, the “A2a EC50 as a ratio of that of NECA” value is given as 9.90.

In the case of `CCn1nnc([C@H]2O[C@@H](n3cnc4c(NCC(c5ccccc5)c5ccccc5)nc(NC5CCS(=O)(=O)CC5)nc43)[C@H](O)[C@@H]2O)n1.O=C(O)C(F)(F)F` [Example 115, (2R,3R,4S,5R)-2-[6-(2,2-Diphenyl-ethylamino)-2-(1,1--dioxo-hexahydro-1.lamda.6-thiopyran-4-ylamino)-purin-9-yl]-5-(2-ethyl-2H-tetrazol-5-yl)-tetrahydro-furan-3,4-diol Trifluoroacetate], the “A3 EC50 as a ratio of that of NECA” value on adenosine 3 receptor is recorded as above 297.0. Besides, at adenosine 1 receptor, the “A1 EC50 as a ratio of that of NECA” value is reported as 37.7. The “A2a EC50 as a ratio of that of NECA” value at adenosine 2a receptor worked out at 0.36.
